From patent US20110166223A1, “METHODS OF INHIBITING FGFR3 SIGNALING” (CEDARS-SINAI MEDICAL CENTER, priority 2008, published 2011)
“Also recorded” adds a separate entry of the source.

Biological target: T1, full-length FLAG-tagged K650E-FGFR3 (Homo sapiens, UniProt P22607, K650E)
T1 construct: using full-length FLAG-tagged K650E-FGFR3 that was expressed in CHO cells; made in house; host or cells: CHO cells (transient transfection, anti-FLAG immunoprecipitation)
Test: Cell-free K650E-FGFR3 kinase assay with STAT1 as substrate
Assay type: biochemical
Conditions: immunopurified from CHO cells; FIG. 6
Protocol: FIG. 6, in accordance with an embodiment herein, depicts 4,4′,4″,4′″-[carbonyl-bis[imino-5,1,3-benzenetriyl bis-{carbonylimino}]]tetrakis-{benzene-1,3-disulfonic acid} inhibits K650E-FGFR3 in a kinase assay. Cell-free K650E-FGFR3 kinase assays were carried-out using full-length FLAG-tagged K650E-FGFR3 that was expressed in CHO cells, purified by immunoprecipitation with FLAG antibody and subjected to a kinase reaction with recombinant STAT1 as a substrate and 4,4′,4″,4′″-[carbonyl-bis[imino-5,1,3-benzenetriyl bis-{carbonylimino}]]tetrakis-{benzene-1,3-disulfonic acid} added to the kinase reaction. Cells transfected with plasmid encoding green fluorescent protein (GFP) serve as a negative control for the immunoprecipitation. […]
OPM2 and KMS11 cells were lysed in ice-cold immunoprecipitation buffer (50 mM Tris-HCl pH 7.4, 150 mM NaCl, 0.5% NP-40, 1 mM EDTA, 25 mM NaF) supplemented with proteinase inhibitors and 10 mM sodium orthovanadate. […] Western blotting signal was quantified by determining the integrated optical density (I.O.D.) of a given band using Scion Image software (Scion Corporation, Frederick, Mass.). […] FGFR3-mediated phosphorylation of STAT1 was detected by western blotting with P-STAT1^Y701 antibody (Cell Signaling). […]

T1 sequence (P22607 23-806 K650E): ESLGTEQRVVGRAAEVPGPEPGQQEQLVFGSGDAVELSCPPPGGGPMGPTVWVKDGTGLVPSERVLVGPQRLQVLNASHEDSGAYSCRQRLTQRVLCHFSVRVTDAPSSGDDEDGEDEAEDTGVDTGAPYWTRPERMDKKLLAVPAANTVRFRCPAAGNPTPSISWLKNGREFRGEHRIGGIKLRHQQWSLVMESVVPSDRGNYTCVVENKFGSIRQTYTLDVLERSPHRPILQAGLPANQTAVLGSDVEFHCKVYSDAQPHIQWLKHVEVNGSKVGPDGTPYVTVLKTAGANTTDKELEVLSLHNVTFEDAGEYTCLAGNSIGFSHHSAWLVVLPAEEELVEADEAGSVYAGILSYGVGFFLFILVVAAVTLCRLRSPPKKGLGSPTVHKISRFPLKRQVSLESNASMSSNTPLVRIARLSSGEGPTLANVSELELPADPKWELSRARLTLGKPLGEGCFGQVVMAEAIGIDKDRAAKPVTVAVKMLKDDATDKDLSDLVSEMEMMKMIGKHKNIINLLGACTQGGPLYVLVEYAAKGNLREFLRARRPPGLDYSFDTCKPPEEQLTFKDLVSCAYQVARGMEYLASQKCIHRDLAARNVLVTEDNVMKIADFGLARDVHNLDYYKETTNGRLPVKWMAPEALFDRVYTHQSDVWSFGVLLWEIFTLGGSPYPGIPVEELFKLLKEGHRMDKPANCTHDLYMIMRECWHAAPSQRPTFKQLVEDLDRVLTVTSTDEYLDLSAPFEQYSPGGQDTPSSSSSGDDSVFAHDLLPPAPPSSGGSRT

## O=C(Nc1cc(C(=O)Nc2ccc(S(=O)(=O)O)cc2S(=O)(=O)O)cc(C(=O)Nc2ccc(S(=O)(=O)O)cc2S(=O)(=O)O)c1)Nc1cc(C(=O)Nc2ccc(S(=O)(=O)O)cc2S(=O)(=O)O)cc(C(=O)Nc2ccc(S(=O)(=O)O)cc2S(=O)(=O)O)c1 [NF449, 4,4′,4″,4′″-[carbonyl-bis[imino-5,1,3-benzenetriylbis-{carbonylimino}]]tetrakis-{benzene-1,3-disulfonic acid}]
  effect on K650E-FGFR3 kinase activity (Y701 phosphorylation of STAT1): inhibitory effect; also recorded: inhibited K650E-FGFR3 kinase activity
